Reference: PubChem BioAssay (NCI)
Several values for one entry are separate records, joined by “and”; a condition that tells them apart may be missing. Equal entries are not always repeated.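 Interpolation was linear, between the two tested concentrations surrounding the appropriate level; five concentrations were tested over 48 hours in 96-well plates. At the GI50, growth is halved. Definition used: TGI = concentration required for complete inhibition of growth.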

Tests used:
Assay in all cases: NCI-60 cell line screen, 48 h
NCI-H460 lung = tested on: NCI-H460 lung
NCI-H226 lung = tested on: NCI-H226 lung
SF-268 CNS = tested on: SF-268 CNS
HCT-15 colon = tested on: HCT-15 colon
MCF7 breast = tested on: MCF7 breast
EKVX NSCLC = tested on: EKVX NSCLC
DU-145 prostate = tested on: DU-145 prostate
BT-549 breast = tested on: BT-549 breast

Compound	GI50 (NCI-H460 lung) [µM]	TGI (NCI-H460 lung) [µM]	GI50 (NCI-H226 lung) [µM]	TGI (NCI-H226 lung) [µM]	GI50 (SF-268 CNS) [µM]	TGI (SF-268 CNS) [µM]	GI50 (HCT-15 colon) [µM]	TGI (HCT-15 colon) [µM]	GI50 (MCF7 breast) [µM]	TGI (MCF7 breast) [µM]	GI50 (EKVX NSCLC) [µM]	TGI (EKVX NSCLC) [µM]	GI50 (DU-145 prostate) [µM]	TGI (DU-145 prostate)	GI50 (BT-549 breast) [µM]	TGI (BT-549 breast) [µM]
C=CC(COC(c1ccccc1)(c1ccccc1)c1ccccc1)N(CC)CC (configuration not stated)	2.5	6.58	11.9	30.9	11	24.9	2.6	13.9	2.8	7.21	4.48	19.2	6.54	20.2 µM	14.7	30.3
COc1cc(-c2csc(NC(=O)Nc3cc(Cl)cc(Cl)c3)n2)cc(OC)c1OC	1.81	3.52	1.96	4.38	2.81	10.6	2.33	6.97	2.01	5.42	1.87	4.22	1.77	3.35 µM	2.2	4.65
O=C1OCC2=C1C(c1ccccc1)c1cc3c(cc1N2CCO)OCCO3 (configuration not stated)	0.193	1.96	10.8	> 50	0.617	> 35.3	0.518	> 50	0.175	48.6	0.962	> 50	0.304	2.73 µM	0.465	> 13.7
Oc1ccc(N=Nc2ccccn2)c(O)c1	0.543	> 100	3.4	82.1	0.732	> 100	0.423	> 100	0.677	> 100	0.407	> 100	1.55	> 100 µM	0.628	> 100
O=C(/C=C\c1ccccc1)N1CCc2ccccc2C1	–	> 100	–	> 100	–	> 100	–	> 100	–	> 100	–	> 100	–	> 100 µM	–	–
O=C(O)/C(=C\c1ccncc1)c1cccc2ccccc12	–	> 100	–	–	–	> 100	–	> 100	–	–	–	> 100	–	> 100 µM	–	> 100
C/C(=N\NC(=S)N(C)C)c1ccccn1	0.0214	4.09	0.0645	5.1	–	11.7	0.00191	16.6	–	13.4	0.143	3.07	–	0.993 µM and 3.17 µM	–	9.59
COc1cccc2c1n([O-])c1cccc(OC)c1[n+]2=O	3.05	14.4	6.1	28.8	6.71	35.3	4.95	> 100	3.15	25.6	7.26	37	7.97	> 100 µM	8.1	21.8
O=C(NC(=S)Nc1cc(Cl)ccc1O)c1cccc(Br)c1	4.42	> 100	28.6	> 100	7.83	> 100	4.78	> 100	2.11	> 100	17.1	> 100	12.3	> 100 µM	62.9	> 100
CC(C)(C)c1ccc(NS(=O)(=O)c2ccc3nc(NC(=O)c4cnccn4)[nH]c3c2)cc1	2.59	11	2.27	8.19	4.29	19.2	0.774	14.6	0.715	13.4	5.01	18.3	3.17	11.5 µM	6.15	22.3
COc1ccc(Cn2cc3c(c2-c2cc(OC)c(OC)c(OC)c2)CCc2cnoc2-3)cc1	0.332	1.88	1.58	> 100	1.18	> 100	0.354	> 100	0.163	> 100	0.397	> 100	0.309	> 100 µM	1.62	> 100
Cc1cc(C(=O)c2ccccc2)c(C)c2c1[nH]c1ccc(Cl)cc12	0.041	14.7	0.892	15.6	0.715	> 78.3	0.0492	5.1	0.0361	17.9	0.126	> 100	0.112	> 42.1 µM	0.0941	3.56
O=[N+]([O-])c1cccc2nccc(NCCCO)c12	–	24.4	–	50.6	–	28.6	–	21.2	–	27.9	–	23.2	–	35.3 µM	–	21.6
COc1cc(NC(=O)C2=C(N3CCOCC3)/C(=C/c3ccc(Cl)cc3)CC2)cc(OC)c1OC	> 100	> 100	34.3	> 100	20	> 100	> 100	> 100	> 100	> 100	24.9	> 100	> 100	> 100 µM	25.5	> 100
O=C1C(Cl)=C(Nc2cccc(C(F)(F)F)c2)C(=O)N1Cc1ccc(Cl)cc1	< 0.0461	13.3	< 0.0129	–	0.312	14.8	0.166	12.5	–	4.82	–	–	1.13	7.92 µM	0.154	20.3
CC1(C)C(=O)/C(=C\c2cccnc2)C[C@]2(C)[C@H]3CC[C@@H]4[C@@H](C(=O)/C=C/c5ccncc5)CC[C@@]4(C)[C@]3(C)CC[C@@H]12	1.9	4	2.34	5.78	2.41	6.53	1.71	4.85	0.804	4.62	2.82	9.2	1.68	3.24 µM	1.59	3.35
Cc1ccc(-c2cc(O)c(-c3ccc(C)cc3C)cc2O)c(C)c1	0.923	15.2	3.11	19.2	6.97	30.6	0.54	18.9	3.74	23.1	5.45	37.3	11.2	28.2 µM	7.56	26.4
